Reference: patent US20040209273A1, “Plant stress-regulated genes” (priority 2001, published 2004)

How the values were obtained:
tobacco leaf discs = assay: Ion leakage (solute conductance) from tobacco leaf discs floated on methyl viologen solutions; set-up: species or system Nicotiana tabacum
Protocol: Nicotiana tabacum cv. Petit Havana SR1 plants were grown in a controlled environment chamber (Weiss Technik, Lindenstruth, DE) under 100 μmol/m^2/s light intensity (photosynthetically active radiation), 16 hours light/8 hours dark regime, relative humidity of 70% and constant temperature of 24° C. The most expanded leaves (11-12 cm long×7-8 cm wide) from five week old plants were used for experiments with methyl viologen.
Leaf discs (1 cm in diameter) were punched with a cork-bore from the interveinal part of the leaf. Three leaf discs, each originating from different plants, were floated with the abaxial side up on 12 ml of methyl viologen solution in nanopure water or water solely in the case of control. Treatments were performed in controlled environment chambers, under the same conditions as for growth, except as otherwise indicated. Leaf discs for RNA extraction were drained on paper, rapidly frozen in liquid nitrogen and stored at −70° C. Ion leakage from the leaf discs was measured as conductivity of the solution using a conductivity meter (Consort, Turnhout, BE)
As a first step in studying adaptive responses to oxidative stress in tobacco, we wanted to establish an experimental system in which low doses of oxidant would induce adaptation to higher doses of the same compound. MV, a redox-active compound that enhances superoxide radical (O2 ? ) formation mainly in chloroplasts, was used as an oxidant. In order to determine MV concentrations suited for the induction of adaptation and for the subsequent oxidative stress treatment, sensitivity of tobacco to MV was first determined. Leaf discs were floated on solutions with different concentrations of MV and ion leakage was monitored by measuring the solute conductance. If not scavenged, superoxide generated by MV is converted through redox-reactions into other active oxygen species (AOS) such as hydroxyl radicals that interact with biological molecules and cause oxidative damage (Halliwell and Gutteridge, 1989). Peroxidation of membrane lipids results in loss of membrane integrity that is reflected by enhanced cellular ion leakage. […] These concentrations thus seemed most suitable for inducing adaptation to MV.
To test whether exposure to sublethal amounts of MV enhances tolerance to higher, normally toxic amounts of this compound, tobacco leaf discs were floated on solutions with less than 0.2 μM MV and subsequently transferred to solutions within the molar range of 0.2-2 μM. Increase in tolerance was assessed by measuring the solute conductance. Leaf discs pretreated with water were taken as nonadapted controls. […]

tobacco leaf disc mRNA = assay: Differential mRNA display of MV-pretreated versus water-pretreated leaf discs; set-up: species or system Nicotiana tabacum; settings: 0.1 μM MV for 17 hours; estimated from sequencing data
Protocol: Total RNA was treated with DNaseI prior to RT-PCR according to the manufacturer's instructions (Life Technologies, Paisley, UK). Alternatively, up to 20 μg of total RNA was incubated with 5 U DNaseI, 18 U Recombinant Ribonuclease Inhibitor (Promega Corp., Madison, Wis., USA), 1 mM DTT in 80 μl of 10 mM Tris-Cl, pH 8.3, 50 mMKCl and 1.5 mM MgCl2 for 30 minutes at 37° C. RNA was extracted with phenol/CHCl3 (3:1), ethanol precipitated and dissolved in diethyl pyrocarbonate-treated water. mRNA differential display was performed with the RNA map™ kit (Gene Hunter Corp., Nashville, Tenn., USA), AmliTaq DNA polymerase (Perkin-Elmer, Branchburg, N.J., USA) and [^33P] dATP (0.2 μl/20 μl PCR reaction of 111 000 GBq/mmol; Isotopchim, Ganagobie-Peyruis, FR). 3.5 μl of each PCR reaction was mixed with 2 μl of loading dye and denatured at 95° C. for five minutes prior to loading onto 6% DNA sequencing gel. […]
In order to identify which genes other than those encoding antioxidant enzymes would show altered mRNA levels during oxidative stress adaptation, reference samples placed in water for 17 hours, or samples pretreated with 0.1 μM MV for 17 hours (adapted leaf discs), were compared by differential mRNA display. […] Expression of 16 genes was further analyzed by Northern analysis with RNA from an independent experiment. […]

[1] = test system: Gpx, SodCc and differential-display genes (mRNA); assay: Northern analysis of gene expression in leaf discs during MV pretreatment and treatment; set-up: species or system Nicotiana tabacum
Protocol: Total RNA was extracted from frozen leaf discs using TRIzol™ Reagent (Life Technologies, Paisley, UK) according to the manufacturer's instructions. RNA samples were treated prior to electrophoresis and resolved on 1% agarose gel as described by Shaul et al. (1996). The RNA was blotted on nylon membrane (Hybond-N, Amersham International plc., Buckinghamshire, UK or Qiabrane, Qiagen GmbH, Hilden, DE) by capillary blotting (Maniatis et al., 1982). RNA was fixed to the membrane by cross-linking at 150 mJ/cm^2. To check the quality of RNA prior to hybridization, membranes were incubated for 15 minutes in 5% acetic acid and stained for five minutes in 0.04% methylene blue in 0.5 M sodium acetate (pH 5.2), and rinsed with water. After the staining and quality check, membranes were destained in 0.1×SSC (Maniatis et al., 1982) containing 0.5% SDS (w/v). Membranes were hybridized at 65° C. in 50% formamide, 5×SSC, 0.5% SDS and 10% dextran sulphate. ^32P-labeled RNA probes corresponding to the cDNA fragments of GPx (Criqui et al., 1992), SodCc (PSOD 3-5′ fragment; Tsang et al., 1991), SodB (pSOD 2-5′ fragment; Tsang et al., 1991), Cat1 (pCat1A; Willekens et al., 1994), and N. tabacum actin (pRVA12; Aventis Crop Science, BE) were generated by the Riboprobe® System (Promega Corp., Madison, Wis., USA). RNA probes corresponding to cDNA fragments isolated by differential display and cloned into pGEM®-T vector (Promega Corp., Madison, Wis., USA) were generated according to the same protocol. Membranes were washed at 65° C. for 15 minutes each in 3×SSC (Maniatis et al., 1982), 1×SSC and 0.1×SSC (stringent washing) containing 0.5% SDS (w/v). Membranes were exposed to the Storage Phosphor Screen and scanned with the Phosphorlmager 445 SI (Molecular Dynamics Inc., Sunnyvale, Calif., USA). Membranes were reused after stripping of the probe in 0.1×SSC at 85° C. Removal of the probe was checked by autoradiography.
mRNA levels of several antioxidant genes were tested by Northern analysis during the pretreatment and the treatment. […]

A. thaliana plants = assay: Growth of Arabidopsis seedlings on plates containing methyl viologen; type: in vivo, Arabidopsis thaliana; settings: 2 μM MV in ½ MS, 1% sucrose; three to four weeks; transformed lines and C24 control
Protocol: Eighty plants of an F2-progeny of the transgenic line WV4 (construct pWRKY-VP16-pGSJ780A) were grown on MS+Kanamycine for two and a half weeks. Fifteen kanamycine-resistant seedlings were transferred to plates containing ½ MS, 1% sucrose and 2 μM methyl viologen (paraquat) or to plates containing ½ MS, 1% sucrose for the controls.
Wild-type Arabidopsis plants were treated in a similar way (except for selection on Kanamycine).
Performance of plants was followed and pictures were taken after approximately three weeks.
Segregating populations (F2) of A. thaliana plants (C 24) transformed with WRKY11 under control of the 35S promoter (35S—WRKY11) or with WRKY11 fused to the VP16 activation domain under control of the 35S promoter (35S—WRKY11-VP16) were grown on MS media with kanamycine. Approximately three-week-old seedlings resistant to kanamycine from 3:1 segregating lines (WV4 and WV9 WRKY11-VP16 transformed lines) were transferred to the solid media containing ½ MS salts, 1% sucrose and 2 μM methyl viologen (MV) or on plates without MV. As control plants, untransformed A. thaliana plants were used (C24). After three to four weeks, phenotypic differences were assessed.

Question: With `C[n+]1ccc(-c2cc[n+](C)cc2)cc1` [MV, methyl viologen] as the compound, how does the “leaf damage measured as solute conductance versus applied dose” value (tobacco leaf discs; 0.2-2 μM MV) read?
Answer: Its value is “clearly correlated with the applied dose of MV”.

Question: And the “visible damage of leaf discs” value (tobacco leaf discs; concentrations lower than 0.2 μM MV, after 42 hours of incubation)?
Answer: The value was “no visible damage”.

Question: And the “increase in ion leakage from the leaf discs in comparison with water-treated controls” value (tobacco leaf discs; concentrations lower than 0.2 μM MV, up to 42 hours of incubation)?
Answer: The value was “very little increase in ion leakage”.

Question: What about the “protection against MV compared to water-pretreated control samples (solute conductance)” value (tobacco leaf discs; pretreated with 0.1 μM MV for 17 hours, then treated with 1 μM MV for 11 hours, mean) of the same compound?
Answer: Its value is 40%.

Question: And the “total number of genes with altered expression after MV pretreatment” value (tobacco leaf disc mRNA)?
Answer: Its value is about 170.

Question: What about the “expression of all Table 2 genes except DIOX” value ([1]; after 12 hours of the pretreatment with 0.1 μM MV) of the same compound?
Answer: The value was “induced”.

Question: And the “expression of all Table 2 genes except DIOX” value ([1]; during the treatment with 1 μM MV, induction started within the first three hours)?
Answer: The value was “further induced”.

Question: What about the “Gpx and SodCc mRNA level” value ([1]; pretreatment with 0.1 μM MV) of the same compound?
Answer: The value was “persistent increase”.

Question: And the “growth of plants on plates containing MV” value (A. thaliana plants)?
Answer: Its value is “retarded”.
